Assay results: PMC10630452, “The tumor-enriched small molecule gambogic amide suppresses glioma by targeting WDR1-dependent cytoskeleton remodeling” (Signal Transduction and Targeted Therapy, 2023)

Columns and labels:
[1] = target: T1, His-WD2-7 (WD2 to WD7 repeats of WDR1) (Homo sapiens, UniProt O75083); assay: SPR analysis (Biacore 8 K); assay type: binding; conditions: immobilized His-WD2-7, 25 °C, 5% DMSO
T1 construct: His; made in house; host or cells: Arctic-Express (E. coli)
Protocol: The binding affinities of GA-amide for its target proteins GST-WDR1, GST, and His-WD2-7 were assayed by using the SPR-based Biacore 8 K instrument (GE Healthcare). The CM5 sensor chip was used to immobilize 15,000 RU of the target protein to the sensor surface by the standard amine coupling reaction at 25 °C in PBS running buffer. Gradient concentrations of GA-amide containing 5% DMSO were injected into the channels to evaluate the binding affinity. The dissociation constants (KD values) of the GA-amide–protein complexes were calculated with Biacore 8 K Evaluation Software.
The pGEX4T-1 plasmid was used to express the GST-WDR1 and GST proteins, while the pET-28c plasmid was used to express the His-WD2-7 protein. Arctic-ExpressTM was used for the production of the GST-WDR1, GST and His-WD2-7 fusion proteins. The cultures were grown at 37 °C, and when the OD600 reached 0.5–0.8, the protein was expressed after 0.5 mM IPTG was added. After 4 h, the cells were collected and washed with cold PBS twice.
For His-WD2-7 protein purification, cells were first lysed by sonication. WD2-7 was present the precipitate and solubilized as described above. Then, the protein was loaded onto a Balanced Ni-IDA-Sepharose Cl-6B column (Novagen) and washed with Ni-IDA Washing-Buffer (20 mM Tris-HCl, 20 mM imidazole, 0.15 M NaCl, pH 8.0). […]

[2] = BBB permeability assay in U87MG-SLC intracranial xenograft mice; assay type: in vivo, mouse; conditions: nude, mouse, in vivo, iv, 10 mg/kg
Protocol: (§1) Fig. 2 The BBB permeability and tumor suppressor ability of GA-amide compared with TMZ. GA-amide (a) or TMZ (b) concentration in the tumor area and normal brain tissue following a single injection of GA-amide (10 mg/kg, i.v.) or TMZ (10 mg/kg, i.v.). The data are presented as the means ± SEMs (n = 3). c Western blot analysis of the expression of TrkA in mouse tumor tissues (T) and normal brain tissues (N), n = 4. d Western blot analysis of glycosylated TrkA expression in human normal brain tissues (N) and glioma tissues of different grades. e Time curve of GA-amide and TMZ treatment in a cell viability assay (MTS) in T2-4, GSC2 and T12-1 cells. f–h A PDX mouse model was established, and the mice were treated with vehicle (control, n = 9), 2 mg/kg GA-amide (n = 9), 2 mg/kg GAC (n = 9) or […] TMZ (n = 8) by i.p. injection daily for 10 days. A summary photograph is presented in (f), statistical results in (g) and the body weights of mice in (h); the mean ± SEMs are shown. n.s: P ≥ 0.05, *P < 0.05, **P < 0.01 and ***P < 0.001 compared with the control group by one-way ANOVA at each time point
Mice bearing U87MG-SLC cell intracranial xenografts were injected with GA-amide (i.v.), and tissues from the brain tumor area and normal brain tissues were collected at different times after injection. […] The diagnostic product ions for GA-amide were detected at m/z 628.3/572.2.

[3] = tested on: WDR1 deficient U87MG-SLC cells; assay: sgWDR1 U87MG-SLC subcutaneous xenograft; assay type: in vivo, nude mice; conditions: 2 mg/kg i.p. once daily for 10 days
[4] = Acute toxicity assay, body weight; assay type: in vivo, mice; conditions: low dose 1 mg/kg, high dose 10 mg/kg, one-time i.v.
Protocol: a Hematoxylin and eosin staining of sections from control and GA-amide-treated livers, kidney and small intestines, scale bars were shown in the panel. b Persistent records of the body weights and the statistical results of the body weight changes after one-time i.v. treatments of control (DMSO), 1 mg/kg GA-amide and 10 mg/kg GA-amide (n = 6, for control and 1mg/kg GA-amide; n = 5, for 10mg/kg GA-amide) were shown.

[5] = tested on: PDCs (T2-4, T12-1, T12-2) and GSC2 cells; assay: Limiting dilution assay (self-renewal); assay type: cell-based; conditions: pretreatment for 4 h
Protocol: For the tumor sphere formation assay, cells were inoculated in 96-well plates at 600 cells/well in a volume of 100 μL. The tumor spheres with a diameter of 50–100 μm and a diameter of over 100 μm were counted separately under a microscope after 14 days. For the limiting dilution assay, cells were dissociated to generate a single-cell suspension, which was diluted along a gradient for seeding in a 96-well plate at concentrations ranging from 400 cells to 25 cells in a volume of 100 μL per well.

subcutaneous glioma PDX = assay: Subcutaneous PDX model of glioma (GBM1); assay type: in vivo, nude mice
Protocol: as §1
Male nude mice aged 5–6 weeks were selected for establishment of the in vivo glioma mouse models. For the PDX models, the tumor sample will be soaked in HBSS solution on ice and transferred from the hospital to the laboratory. Patient-related information was shown in Supplementary Table 4). For the subcutaneous PDX models, the isometric fresh GBM tumor (GBM1) specimens were implanted s.c. into the flank of a nude mouse. Then, the mice were treated with GA-amide (2 mg/kg i.p.), gambogic acid (2 mg/kg i.p.), TMZ (65 mg/kg i.p., Selleck) or vehicle after the tumors grew to 100 mm^3. The mouse body weights were measured, and tumor volumes were calculated using the formula L × W^2/2. After treatment, the xenografts were harvested and photographed.

infarct = conditions: subcutaneous injection of 2 mg/kg; cited from earlier work

T1 sequence (O75083 48-306 limits assumed): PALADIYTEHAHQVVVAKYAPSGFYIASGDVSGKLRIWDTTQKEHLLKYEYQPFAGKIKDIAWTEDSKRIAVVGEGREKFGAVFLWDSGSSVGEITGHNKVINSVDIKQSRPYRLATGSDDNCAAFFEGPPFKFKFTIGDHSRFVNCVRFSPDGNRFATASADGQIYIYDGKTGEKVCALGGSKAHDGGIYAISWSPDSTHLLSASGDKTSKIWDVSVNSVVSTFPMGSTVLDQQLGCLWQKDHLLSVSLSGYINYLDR

## CC(C)=CCC[C@]1(C)C=Cc2c(O)c3c(c(CC=C(C)C)c2O1)O[C@]12C(=C[C@@H]4CC1C(C)(C)O[C@@]2(C/C=C(/C)C(N)=O)C4=O)C3=O [GA-amide, gambogic amide]
[1]
  Kd: 46.7 µM
[2]
  Tmax: 2 min
[3]
  tumor growth of WDR1 deficient xenograft: could not inhibit the tumor growth
[4]
  body weight after a single injection: did not change the body weight
[5]
  self-renewal (limiting dilution): suppressed
Subcutaneous glioma PDX; 2 mg/kg i.p. daily for 10 days
  body weight of mice: did not cause the loss of body weight
  tumor volume versus control: significantly decreased compared with those in the control group
Subcutaneous glioma PDX; PDX tumors at endpoint, 10 days treatment
  Ki67, CD133 and cleaved caspase3 in tumor sections (immunohistology): decreased expression of Ki67 and the GSC marker prominin 1 (CD133) as well as an increased level of cleaved caspase3
Subcutaneous glioma PDX; after GA-amide treatment
  histology of liver, kidney and small intestine (H&E): no discernible abnormalities
infarct
  infarct volume: significantly reduce the infarct volume
